Six compounds from article PMC6271228, “Diethyl 2-(Phenylcarbamoyl)phenyl Phosphorothioates: Synthesis, Antimycobacterial Activity and Cholinesterase Inhibition” (Molecules, 2014) can be followed below.

In brackets after ≈: the same amount, converted by molar mass. Read-outs that look alike come from different tables or passages of the source.

In experiment [1] the target is T1, BChE from equine serum (Equus caballus, UniProt P81908).
T1 construct: butyrylcholinesterase from equine serum; from tissue; host or cells: equine serum
Nature of the experiment: BChE inhibition, modified Ellman's method. It counts as biochemical. The text has this: (§1) The ability of the tested compounds to inhibit AChE from electric eel (Electrophorus electricus L.) and BChE from equine serum was screened in vitro using modified Ellman’s method for the evaluation of cholinesterase activity. […] […]. These two standards were chosen due to their different structures. […]. The choice of these drugs with different mechanism of action can provide relevant results. All tested compounds expressed a good inhibitory activity with IC50s in low micromolar values.
(§2) The IC50 values were determined using the spectrophotometric Ellman’s method, which is a simple, rapid and direct method to determine the SH and -S-S- group content in proteins. This method is widely used for cholinesterase activity evaluation and screening of the efficiency of cholinesterase inhibitors. Cholinesterase activity is measured indirectly by quantifying the concentration of 5-thio-2-nitrobenzoic acid (TNB) ion formed in the reaction between the thiol reagent 5,5'-dithiobis-2-nitrobenzoic acid (DTNB) and thiocholine, a product of substrate hydrolysis by cholinesterase (i.e., acetylthiocholine, ATCh). All the tested compounds were dissolved in dimethyl sulfoxide (concentration 0.01 M) and then diluted in demineralised water (concentration 0.001 M and 0.0001 M). The Ellman’s method is slightly modified according to Zdrazilova et al.. Acetylcholinesterase was obtained from electric eel (Electrophorus electricus L.) and butyrylcholinesterase from equine serum.
In general terms: In Ellman's method for cholinesterases, released thiocholine reacts with DTNB.

For experiment [2], the system named is M. avium My 330/88. Nature of the experiment: microbe, parasite or virus in culture. It counts as cell-based, Mycobacterium avium. Particulars: for MIC: Mycobacterium avium, 37 °C.
Experiment [3] has as its target T2, AChE from electric eel (Electrophorus electricus, UniProt O42275).
T2 construct: Acetylcholinesterase was obtained from electric eel (Electrophorus electricus L.); from tissue; host or cells: electric eel (Electrophorus electricus L.)
Nature of the experiment: AChE inhibition, modified Ellman's method. It counts as biochemical, Electrophorus electricus L.
From the text: as §1, §2

Experiment [4] has as its system M. kansasii 6509/96 (clinically isolated). Nature of the experiment: microbe, parasite or virus in culture. It counts as cell-based. Particulars: Mycobacterium kansasii, 37 °C.
For experiment [5], the system named is M. kansasii My 235/80. Nature of the experiment: microbe, parasite or virus in culture. It is filed as cell-based, Mycobacterium kansasii. The conditions noted are these: for MIC: Mycobacterium kansasii, 37 °C.
For experiment [6], the system named is Mycobacterium tuberculosis My 331/88 (H37Rv). Nature of the experiment: microbe, parasite or virus in culture. It is filed as cell-based.
[7] abbreviates: MY330/88, 336 h, 14 d, read-out: MIC M. avium 330/88 14 d.
Where [8] appears, read: MY330/88, 504 h, 21 d, read-out: MIC M. avium 330/88 21 d.
Setting [9] is: 168 h, 7 d, read-out: MIC M. kansasii 6509/96 7 d.
Setting [10] is: 336 h, 14 d, read-out: MIC M. kansasii 6509/96 14 d.
Where [11] appears, read: 504 h, 21 d, read-out: MIC M. kansasii 6509/96 21 d.
Setting [12] is: MY235/80, 168 h, 7 d, read-out: MIC M. kansasii 235/80 7 d.
Setting [13] is: MY235/80, 336 h, 14 d, read-out: MIC M. kansasii 235/80 14 d.
Setting [14] is: MY235/80, 504 h, 21 d, read-out: MIC M. kansasii 235/80 21 d.
The mark [15] stands for this setting: 336 h, 14 d, 37 °C, read-out: MIC Mtb 331/88 (H37Rv) 14 d.
[16] abbreviates: 504 h, 21 d, 37 °C, read-out: MIC Mtb 331/88 (H37Rv) 21 d.

T2 sequence (O42275 24-633): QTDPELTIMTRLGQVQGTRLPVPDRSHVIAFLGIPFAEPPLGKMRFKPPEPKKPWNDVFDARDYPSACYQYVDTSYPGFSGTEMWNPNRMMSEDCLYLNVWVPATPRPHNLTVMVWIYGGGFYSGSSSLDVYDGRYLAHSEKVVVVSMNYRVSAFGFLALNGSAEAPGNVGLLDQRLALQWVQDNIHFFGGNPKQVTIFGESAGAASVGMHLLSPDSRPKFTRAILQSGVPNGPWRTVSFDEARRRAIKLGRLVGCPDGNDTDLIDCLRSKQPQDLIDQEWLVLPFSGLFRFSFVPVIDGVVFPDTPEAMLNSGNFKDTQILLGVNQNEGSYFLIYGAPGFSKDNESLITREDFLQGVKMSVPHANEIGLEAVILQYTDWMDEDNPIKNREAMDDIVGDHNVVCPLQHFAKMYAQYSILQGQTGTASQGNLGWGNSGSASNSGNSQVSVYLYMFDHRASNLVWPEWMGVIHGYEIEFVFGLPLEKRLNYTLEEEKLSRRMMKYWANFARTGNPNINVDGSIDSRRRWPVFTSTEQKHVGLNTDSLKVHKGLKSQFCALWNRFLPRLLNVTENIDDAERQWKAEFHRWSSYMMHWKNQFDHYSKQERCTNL
T1 sequence (P81908 whole entry): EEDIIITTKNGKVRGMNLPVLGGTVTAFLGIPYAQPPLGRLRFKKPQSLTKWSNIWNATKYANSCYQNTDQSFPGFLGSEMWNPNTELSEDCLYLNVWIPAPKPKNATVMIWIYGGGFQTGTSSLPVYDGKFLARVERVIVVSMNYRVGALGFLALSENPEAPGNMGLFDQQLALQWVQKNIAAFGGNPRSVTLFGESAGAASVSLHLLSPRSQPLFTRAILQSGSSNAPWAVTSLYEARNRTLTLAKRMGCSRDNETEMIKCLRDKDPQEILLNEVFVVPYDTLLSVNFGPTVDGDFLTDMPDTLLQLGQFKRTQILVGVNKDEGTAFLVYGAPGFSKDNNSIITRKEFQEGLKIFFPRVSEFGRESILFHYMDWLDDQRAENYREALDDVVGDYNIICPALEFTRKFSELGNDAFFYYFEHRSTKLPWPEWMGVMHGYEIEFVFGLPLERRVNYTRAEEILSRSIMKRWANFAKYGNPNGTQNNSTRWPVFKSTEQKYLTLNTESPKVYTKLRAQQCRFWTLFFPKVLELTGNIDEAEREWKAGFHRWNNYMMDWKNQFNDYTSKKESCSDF

Take `CCOP(=S)(OCC)Oc1ccc(Br)cc1C(=O)Nc1ccc(Cl)c(Cl)c1` [1c, O-{4-Bromo-2-[(3,4-dichlorophenyl)carbamoyl]phenyl} O,O-diethyl phosphorothioate]: the IC50 turned out to be 18.8 ± 0.7 µM in experiment [1] and 14 ± 0.1 µM in experiment [3]. For the same compound, the MIC in experiment [2] (setting [7]) amounted to 500 µM (≈ 257 µg/mL); in experiment [2] (setting [8]) it was 500 µM (≈ 257 µg/mL); in experiment [4] (setting [9]), 62.5 µM (≈ 32.1 µg/mL); in experiment [4] (setting [10]) it was 125 µM (≈ 64.1 µg/mL); in experiment [4] (setting [11]), 125 µM (≈ 64.1 µg/mL); in experiment [5] (setting [12]) it was 62.5 µM (≈ 32.1 µg/mL). Also, the MIC was 250 µM (≈ 128 µg/mL) in experiment [5] (setting [13]); 500 µM (≈ 257 µg/mL) in experiment [5] (setting [14]); 4 µM (≈ 2.05 µg/mL) in experiment [6] (setting [15]); 4 µM (≈ 2.05 µg/mL) in experiment [6] (setting [16]); 4 µM (≈ 2.05 µg/mL) in experiment [6] (read-out: MIC against Mtb).
Regarding `CCOP(=S)(OCC)Oc1ccc(Cl)cc1C(=O)Nc1ccc(F)cc1` [1p, O-{4-Chloro-2-[(4-fluorophenyl)carbamoyl]phenyl} O,O-diethyl phosphorothioate], the IC50 in experiment [1] stood at 14.9 ± 0.8 µM; in experiment [3] it was 13.6 ± 1.1 µM. Moreover, the MIC amounted to 500 µM (≈ 209 µg/mL) in experiment [2] (setting [7]); 500 µM (≈ 209 µg/mL) in experiment [2] (setting [8]); 125 µM (≈ 52.2 µg/mL) in experiment [4] (setting [9]); 250 µM (≈ 104 µg/mL) in experiment [4] (setting [10]); 500 µM (≈ 209 µg/mL) in experiment [4] (setting [11]); 250 µM (≈ 104 µg/mL) in experiment [5] (setting [12]). Moreover, the MIC was 500 µM (≈ 209 µg/mL) in experiment [5] (setting [13]), greater than 500 µM in experiment [5] (setting [14]), 16 µM (≈ 6.69 µg/mL) in experiment [6] (setting [15]) and 16 µM (≈ 6.69 µg/mL) in experiment [6] (setting [16]).
Turning to `CCOP(=S)(OCC)Oc1ccc(Br)cc1C(=O)Nc1cccc(C(F)(F)F)c1` [1h, O-(4-Bromo-2-{[3-(trifluoromethyl)phenyl]carbamoyl}phenyl) O,O-diethyl phosphorothioate], the IC50 in experiment [1] amounted to 20 ± 0.5 µM; in experiment [3] it was 13 ± 0.02 µM. The MIC in experiment [2] (setting [7]) was 125 µM (≈ 64 µg/mL); in experiment [2] (setting [8]), 125 µM (≈ 64 µg/mL); in experiment [4] (setting [9]) it was 32 µM (≈ 16.4 µg/mL); in experiment [4] (setting [10]), 62.5 µM (≈ 32 µg/mL); in experiment [4] (setting [11]), 125 µM (≈ 64 µg/mL); in experiment [5] (setting [12]) it was 32 µM (≈ 16.4 µg/mL). Further, the MIC in experiment [5] (setting [13]) stood at 62.5 µM (≈ 32 µg/mL); in experiment [5] (setting [14]) it was 125 µM (≈ 64 µg/mL); in experiment [6] (setting [15]), 8 µM (≈ 4.1 µg/mL); in experiment [6] (setting [16]), 8 µM (≈ 4.1 µg/mL); in experiment [6] (read-out: MIC against Mtb), 8 µM (≈ 4.1 µg/mL). In addition, in experiment [2] (all MIC values (14 and 21 d)), the “MIC values against M. avium” value is given as no more than 250 µM. In addition, the “MICs for M. kansasii 235/80” value in experiment [5] (all time points) is recorded as no more than 250 µM.
In the case of `CCOP(=S)(OCC)Oc1ccc(Cl)cc1C(=O)Nc1ccc(Br)cc1` [1n, O-{2-[(4-Bromophenyl)carbamoyl]-4-chlorophenyl} O,O-diethyl phosphorothioate], the IC50 in experiment [1] was 15.1 ± 0.1 µM; in experiment [3], 9.32 ± 0.06 µM. Moreover, the MIC in experiment [2] (setting [7]) amounted to 500 µM (≈ 239 µg/mL); in experiment [2] (setting [8]), 500 µM (≈ 239 µg/mL); in experiment [4] (setting [9]), 250 µM (≈ 120 µg/mL); in experiment [4] (setting [10]) it was 500 µM (≈ 239 µg/mL); in experiment [4] (setting [11]), 500 µM (≈ 239 µg/mL); in experiment [5] (setting [12]), 250 µM (≈ 120 µg/mL). In addition, the MIC in experiment [5] (setting [13]) was 500 µM (≈ 239 µg/mL); in experiment [5] (setting [14]) it was 500 µM (≈ 239 µg/mL); in experiment [6] (setting [15]), 32 µM (≈ 15.3 µg/mL); in experiment [6] (setting [16]) it was 32 µM (≈ 15.3 µg/mL).
Consider `NNC(=O)c1ccncc1` [INH, isoniazid, reference compound], for which the MIC in experiment [2] (setting [7]) was greater than 250 µM; in experiment [2] (setting [8]), greater than 250 µM; in experiment [4] (setting [9]) it was 2 to 4 µM (≈ 0.274 to 0.549 µg/mL); in experiment [4] (setting [10]) it was 4 µM (≈ 0.549 µg/mL); in experiment [4] (setting [11]) it was 4 to 8 µM (≈ 0.549 to 1.1 µg/mL); in experiment [5] (setting [12]), greater than 250 µM. The MIC in experiment [5] (setting [13]) is greater than 250 µM; in experiment [5] (setting [14]), greater than 250 µM; in experiment [6] (setting [15]) it was 0.5 to 1 µM (≈ 0.0686 to 0.137 µg/mL); in experiment [6] (setting [16]), 1 µM (≈ 0.137 µg/mL).
On to `Nc1ccc(C(=O)O)c(O)c1` [PAS, para-aminosalicylic acid, reference compound], for which the MIC worked out at 32 µM (≈ 4.9 µg/mL) in experiment [2] (setting [7]); 125 µM (≈ 19.1 µg/mL) in experiment [2] (setting [8]); 32 µM (≈ 4.9 µg/mL) in experiment [4] (setting [9]); 125 µM (≈ 19.1 µg/mL) in experiment [4] (setting [10]); 500 µM (≈ 76.6 µg/mL) in experiment [4] (setting [11]); 125 µM (≈ 19.1 µg/mL) in experiment [5] (setting [12]). Further, the MIC was 1000 µM (≈ 153 µg/mL) in experiment [5] (setting [13]), greater than 1000 µM in experiment [5] (setting [14]), 62.5 µM (≈ 9.57 µg/mL) in experiment [6] (setting [15]) and 62.5 µM (≈ 9.57 µg/mL) in experiment [6] (setting [16]).

Usually IC50 stands for the concentration that gives 50% inhibition. Low values mean higher potency, high ones lower potency.
